Columns and labels:
GvHD = test: Preclinical mouse model of allo-HCT (GvHD); type: in vivo, Balb/c recipient mice; conditions: for % of recipient and donor BM-derived APCs in spleens / % of CD80-expressing donor-derived APCs in spleens / % of Tregs in the spleens: 20 mg/kg s.c., day 6 after allo-HCT; for % of recipient and donor BM-derived APCs in spleens: vs control
Text: To determine the potential of WU4 and WU8 in preventing GvHD, we performed allo-HCT in which 5 × 10^6 T cell-depleted bone marrow (TCD-BM; CD45.1+) and 5 × 10^5 splenic pan T cells (CD45.2+) obtained from B6 mice were transplanted into lethally irradiated (900 cGy on day −1) Balb/c allogeneic recipient mice on day 0. […]. […] Among monocyte subsets, we only considered classical (LyG6^−CD11b^+Ly6C^high) and intermediate monocytes (LyG6^−CD11b^+Ly6C^middle) as APCs, excluding non-classical monocytes (LyG6^−CD11b^+Ly6C^low) due to their anti-inflammatory function, which downregulates antigen presentation during inflammation. […]
Figure 5 In vivo administration of WU4 and WU8 reduces GvHD by increasing % of Tregs while suppressing % of APCs and costimulatory proteins on APCs after allo-HCT. Allo-HCT was performed as follows: 5 × 10^6 TCD-BM (CD45.1+) and 5 × 10^5 splenic T cells (CD45.2+) obtained from B6 mice were transplanted on day 0 into lethally irradiated (900 cGy on day −1) Balb/c allogeneic recipient mice. TCD-BM-only group served as a no-GvHD control. […] (A,B) The mice were monitored for survival and GvHD signs. (C–F) Whole splenocytes were analyzed for % of Tregs, recipient/BM-derived APCs, and CD80-expressing APCs on day 6 after allo-HCT. LyG6^−CD11b^+Ly6C^high and LyG6^−CD11b^+Ly6C^middle served as classical and intermediate monocyte subsets. NT: neutrophils. * p < 0.05, ** p < 0.01, and *** p < 0.001. All error bars are represented as mean ± standard deviation.
Allo-HCT was performed as previously described. Briefly, BALB/c mice were used as recipients and received 9 Gy total body irradiation on day −1, then were transplanted with 5 × 10^6 T cell-depleted bone marrow (TCD-BM) cells from B6 (CD45.1+) mice along with 0.5 × 10^6 splenic T cells from B6 (CD45.2+) mice on day 0. Mouse TCD-BM and splenic T cells were prepared using an EasySep mouse CD90.2 positive selection kit II and an EasySep mouse T cell isolation kit ([…] Technologies, Cambridge, MA, USA), respectively.
GvHD clinical scores were assessed twice per week by a scoring system incorporating five clinical criteria: weight loss (diarrhea scored 1 regardless of weight change), posture (hunching), mobility, fur texture, and skin integrity, as previously described. Individual mice were scored from 0 to 2 for each criterion and were sacrificed with GvHD scores of 6 or above, following our approved animal protocol.
T cells from in vitro primary murine T cell culture, fresh peripheral blood, or whole splenocytes were analyzed according to cell surface and intracellular markers. Surface markers were directly stained with flow antibodies for 20 min at 4 °C. For intracellular staining (FOXP3 and T-bet), cells were fixed and permeabilized after surface staining using appropriate buffers (One-step intracellular nuclear protein staining protocol, eBioscience, San Diego, CA, USA) and stained with flow antibodies. The antibodies used for flow cytometric analyses for mouse cells were as follows: FOXP3, T-BET, and CD183 (eBioscience, San Diego, CA, USA); CD3, H2-Kb, H2-Kd, CD4, B220, CD11b, CD11c, Ly6C, and DEC205 (BioLegend, San Diego, CA); and CD8, CD45.2, CD80, and Ly6G (BD Pharmingen, San Jose, CA, USA). All cells were run on a ZE5 Cell Analyzer (BD Biosciences, Mountain View, CA, USA) or Attune® NxT (Thermofisher Scientific, Waltham, MA, USA) and analyzed with the FlowJo software, version 10.9.0 (FlowJo LLC., Ashland, OR, USA).

JAK3 = biological target: T1, JAK3 (Homo sapiens, UniProt P52333); test: Z'-LYTE enzyme activity assay (SelectScreen Kinase Profiling), JAK3
T1 sequence (P52333 1-1124): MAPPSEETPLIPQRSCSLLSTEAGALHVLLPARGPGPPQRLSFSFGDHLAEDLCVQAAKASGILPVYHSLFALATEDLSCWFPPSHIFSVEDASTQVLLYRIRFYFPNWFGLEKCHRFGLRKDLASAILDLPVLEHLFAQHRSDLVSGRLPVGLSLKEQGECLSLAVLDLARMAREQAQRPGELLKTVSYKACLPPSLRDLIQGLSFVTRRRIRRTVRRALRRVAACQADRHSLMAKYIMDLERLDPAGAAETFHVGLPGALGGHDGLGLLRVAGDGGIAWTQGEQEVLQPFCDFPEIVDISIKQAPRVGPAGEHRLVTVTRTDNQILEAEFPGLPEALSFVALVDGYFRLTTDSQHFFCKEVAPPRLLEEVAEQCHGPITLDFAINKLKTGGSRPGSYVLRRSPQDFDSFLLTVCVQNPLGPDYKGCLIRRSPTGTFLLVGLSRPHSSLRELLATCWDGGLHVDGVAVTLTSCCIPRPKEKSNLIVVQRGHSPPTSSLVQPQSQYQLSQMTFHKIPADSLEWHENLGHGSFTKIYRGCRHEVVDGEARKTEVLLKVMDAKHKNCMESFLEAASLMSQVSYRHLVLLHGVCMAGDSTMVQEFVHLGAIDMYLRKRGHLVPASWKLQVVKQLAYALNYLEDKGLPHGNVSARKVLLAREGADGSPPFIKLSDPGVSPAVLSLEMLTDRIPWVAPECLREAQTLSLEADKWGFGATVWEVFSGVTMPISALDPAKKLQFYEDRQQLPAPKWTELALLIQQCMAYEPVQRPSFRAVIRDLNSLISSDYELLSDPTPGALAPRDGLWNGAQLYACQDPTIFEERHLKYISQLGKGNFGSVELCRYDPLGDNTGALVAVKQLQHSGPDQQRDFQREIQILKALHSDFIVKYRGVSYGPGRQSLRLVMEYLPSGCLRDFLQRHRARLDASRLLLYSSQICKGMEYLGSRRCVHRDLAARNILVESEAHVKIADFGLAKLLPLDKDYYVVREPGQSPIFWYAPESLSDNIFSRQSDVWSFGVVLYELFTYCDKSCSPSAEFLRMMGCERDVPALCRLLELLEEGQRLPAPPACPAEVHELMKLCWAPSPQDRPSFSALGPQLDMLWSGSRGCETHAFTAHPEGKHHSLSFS

TYK2 = TYK2 (Homo sapiens, UniProt P29597); test: Z'-LYTE enzyme activity assay (SelectScreen Kinase Profiling), TYK2
[1] = 20 mg/kg s.c. once daily for 3 weeks from day 3, vs vehicle control
[2] = dose not given, compared to WU4
[3] = 4 mg/kg s.c. once daily for 3 weeks from day 3, vs vehicle control

Chain of TYK2 (P29597 whole entry): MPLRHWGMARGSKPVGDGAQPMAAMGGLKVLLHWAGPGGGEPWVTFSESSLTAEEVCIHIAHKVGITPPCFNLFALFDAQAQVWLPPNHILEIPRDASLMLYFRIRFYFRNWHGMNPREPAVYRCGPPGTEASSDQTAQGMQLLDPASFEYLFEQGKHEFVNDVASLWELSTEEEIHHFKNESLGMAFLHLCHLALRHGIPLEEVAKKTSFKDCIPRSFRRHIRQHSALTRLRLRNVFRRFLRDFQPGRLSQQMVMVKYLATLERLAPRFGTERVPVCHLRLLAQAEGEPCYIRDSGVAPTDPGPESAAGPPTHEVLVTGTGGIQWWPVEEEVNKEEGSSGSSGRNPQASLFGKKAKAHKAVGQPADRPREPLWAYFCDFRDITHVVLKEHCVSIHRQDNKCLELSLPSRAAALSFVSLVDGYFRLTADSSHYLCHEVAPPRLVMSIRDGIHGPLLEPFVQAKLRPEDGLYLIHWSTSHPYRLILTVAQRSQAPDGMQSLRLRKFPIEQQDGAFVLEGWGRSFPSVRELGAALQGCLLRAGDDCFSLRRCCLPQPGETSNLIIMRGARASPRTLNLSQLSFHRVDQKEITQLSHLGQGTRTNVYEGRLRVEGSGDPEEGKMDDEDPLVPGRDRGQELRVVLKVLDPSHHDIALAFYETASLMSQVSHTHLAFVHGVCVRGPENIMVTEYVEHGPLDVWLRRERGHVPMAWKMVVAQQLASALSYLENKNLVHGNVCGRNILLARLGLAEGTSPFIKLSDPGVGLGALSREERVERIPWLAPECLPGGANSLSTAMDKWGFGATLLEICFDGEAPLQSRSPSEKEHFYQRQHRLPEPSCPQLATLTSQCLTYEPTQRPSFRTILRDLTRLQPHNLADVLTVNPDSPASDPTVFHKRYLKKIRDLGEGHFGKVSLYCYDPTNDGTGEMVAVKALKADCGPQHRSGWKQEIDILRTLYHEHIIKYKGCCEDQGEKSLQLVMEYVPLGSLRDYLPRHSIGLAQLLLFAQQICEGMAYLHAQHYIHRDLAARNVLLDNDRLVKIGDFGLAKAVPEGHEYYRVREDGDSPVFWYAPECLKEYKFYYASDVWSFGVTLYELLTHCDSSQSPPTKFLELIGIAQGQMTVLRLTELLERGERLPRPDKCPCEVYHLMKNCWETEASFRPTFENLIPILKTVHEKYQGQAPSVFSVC

SMILES | clinical GvHD scores (GvHD; [1]) | overall survival (GvHD; [1]) | % of recipient and donor BM-derived APCs in spleens (GvHD) | % of CD80-expressing donor-derived APCs in spleens (GvHD; vs vehicle control) | % of Tregs in the spleens (GvHD; vs vehicle control) | IC50 (JAK3; IC50 JAK3, ATP at 1 mM) [nM] | IC50 (JAK3; IC50 JAK3, ATP at app. Km) [nM] | IC50 (TYK2; IC50 TYK2, ATP at 1 mM) [nM] | IC50 (TYK2; IC50 TYK2, ATP at app. Km) [nM] | clinical GvHD scores (GvHD; [2]) | overall survival (GvHD; [2]) | percentage of donor-BM-derived B and T cells in the PB (GvHD; dose not given, day 27 after allo-HCT, compared to WU4) | clinical GvHD scores (GvHD; [3]) | overall survival (GvHD; [3])
CCS(=O)(=O)NC1CC2(C1)CC(CC#N)(n1cc(-c3ncnc4[nH]ccc34)cn1)C2 (stereo not drawn) [WU4] | did not significantly improve GvHD | failed to provide any survival benefits | reducing the % of donor-derived CD11b+ APCs | reducing the % of donor-derived CD11b+ APCs and CD80-expressing B cells | significantly increasing the % of Tregs | 84 | 1.14 | 1.09 | 0.417 |  |  |  |  | 
N#CCC1(n2cc(-c3ncnc4[nH]ccc34)cn2)CC2(CC(NS(=O)(=O)C(F)(F)F)C2)C1 (stereo not drawn) [WU6] |  |  |  |  |  | 311 | 6.4 | 6.48 | 0.766 | significantly less clinical GvHD scores | improved overall survival | increased percentage of donor-BM-derived B and T cells |  | 
N#CCC1(n2cc(-c3ncnc4[nH]ccc34)cn2)CCS(=O)(=O)CC1 [WU8] | improved clinical GvHD scores | significantly increased overall survival | reduced the % of both the residual recipient and donor BM-derived APCs | decreased | trend towards higher frequencies of Tregs | 549 | 18.3 | 49.1 | 2.84 |  |  |  | less GvHD | mild trend towards improved survival

Reference: publication PMC11052071, “Novel JAK Inhibitors to Reduce Graft-Versus-Host Disease after Allogeneic Hematopoietic Cell Transplantation in a Preclinical Mouse Model” (Molecules, 2024)
